Test results from US9499550B2 (BRISTOL-MYERS SQUIBB COMPANY, priority 2012, dated 2016).
Where two headings read alike, the source gives them in different places.

Columns and labels:
[1] = tested on: HCV genotype 1b (Con1) replicon in HUH-7 cells; test: HCV replicon luciferase reporter assay, genotype 1b; assay type: cell-based; conditions: Hepatitis C virus, Huh-7, 72 h, 3 days incubation
Procedure, shortened: (§1)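 Replicon inhibition for both genotypes was measured as Renilla luciferase signal (EnduRen, 7.5 μM final, 2 h) after 3-day, 37° C exposure of replicon-bearing HUH-7 cells in 4% FCS DMEM, 0.5% DMSO. The 1b construct carries S1179I; the 1a H77 construct carries P1496L and S2204I. Twenty-point, 3-fold dilutions were fitted four-parametrically for EC50, and CC50 was taken from multiplexed Cell Titer-Blue.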

[2] = tested on: HCV genotype 1a (H77 strain) replicon in HUH-7 cells; test: HCV replicon luciferase reporter assay, genotype 1a; assay type: cell-based; conditions: Hepatitis C virus, Huh-7, 72 h, 3 days incubation
Procedure, shortened: as §1

[3] = HCV genotype 1b replicon luciferase, read-out: LE_1b (EC50, range)
[4] = HCV genotype 1a replicon luciferase, read-out: LE_1a (EC50, range)
[5] = HCV genotype 1b replicon luciferase assay, range class, read-out: LE_1b (EC50, range)
[6] = HCV genotype 1a replicon luciferase assay, range class, read-out: LE_1a (EC50, range)

| SMILES | EC50 [1, 3] | EC50 [2, 4] | EC50 [1, 5] | EC50 [2, 6] | other results |
| --- | --- | --- | --- | --- | --- |
| CCn1nc(O[C@@H]2C[C@H]3C(=O)N[C@]4(C(=O)NS(=O)(=O)C5(C)CC5)C[C@H]4/C=C\CC[C@@H](C)C[C@@H](C)[C@H](NC(=O)C(=O)N(C)C)C(=O)N3C2)c2ccccc2c1=O [Compound 5063, N1-((2R,6S,7R,9R,13aS,14aR,16aS,Z)-2-((3-ethyl-4-oxo-3,4-dihydrophthalazin-1-yl)oxy)-7,9-dimethyl-14a-(((1-methylcyclopropyl)sulfonyl)carbamoyl)-5,16-dioxo-1,2,3,5,6,7,8,9,10,11,13a,14,14a,15,16,16a-hexadecahydrocyclopropa[e]pyrrolo[1,2-a][1,4]diazacyclopentadecin-6-yl)-N2,N2-dimethyloxalamide] | > 87.4 nM | > 87.4 nM |  |  | EC50 ([1]; HCV genotype 1b replicon luciferase, read-out: LE_1b (EC50)): 479 nM; EC50 ([2]; HCV genotype 1a replicon luciferase, read-out: LE_1a (EC50)): ≥ 1000 nM |
| COc1ccc2c(O[C@@H]3C[C@H]4C(=O)N[C@]5(C(=O)NS(=O)(=O)C6(C)CC6)C[C@H]5/C=C\CC[C@H](C)C[C@@H](C)[C@H](NC(=O)OC(C)(C)C(F)(F)F)C(=O)N4C3)nc(-c3ccc(OC(C)C)c(F)c3)cc2c1 [Compound 3077, 1,1,1-trifluoro-2-methylpropan-2-yl((2R,6S,7R,9S,13aS,14aR,16aS,Z)-2-((3-(3-fluoro-4-isopropoxyphenyl)-6-methoxyisoquinolin-1-yl)oxy)-7,9-dimethyl-14a-(((1-methylcyclopropyl)sulfonyl)carbamoyl)-5,16-dioxo-1,2,3,5,6,7,8,9,10,11,13a,14,14a,15,16,16a-hexadecahydrocyclopropa[e]pyrrolo[1,2-a][1,4]diazacyclopentadecin-6-yl)carbamate] |  |  | < 5.46 nM | 4.82 to 103 nM |  |
| COc1cc2c(N3CCOCC3)cnc(O[C@@H]3C[C@H]4C(=O)N[C@]5(C(=O)NS(=O)(=O)C6(C)CC6)C[C@H]5/C=C\CC[C@@H](C)C[C@@H](C)[C@H](NC(=O)OC(C)(C)C(F)(F)F)C(=O)N4C3)c2cc1F [Compound 4101] |  |  |  |  | EC50 ([1]; GETYPE1B, HCV genotype 1b replicon luciferase, read-out: LE_1b (EC50, range)): < 5.46 nM; EC50 ([2]; GETYPE1A, HCV genotype 1a replicon luciferase, read-out: LE_1a (EC50, range)): < 5.46 nM |
| COc1ccc2c(O[C@@H]3C[C@H]4C(=O)N[C@]5(C(=O)NS(=O)(=O)C6(C)CC6)C[C@H]5/C=C\CC[C@@H](C)C[C@@H](C)[C@H](NC(=O)OC(C)(C)C)C(=O)N4C3)ncc(OC)c2c1 [Compound 4080, tert-butyl (2R,6S,7R,9R,13aS,14aR,16aS,Z)-2-(4,6-dimethoxyisoquinolin-1-yloxy)-7,9-dimethyl-14a-(1-methylcyclopropylsulfonylcarbamoyl)-5,16-dioxo-1,2,3,5,6,7,8,9,10,11,13a,14,14a,15,16,16a-hexadecahydrocyclopropa[e]pyrrolo[1,2-a][1,4]diazacyclopentadecin-6-ylcarbamate] | < 5.46 nM | < 5.46 nM |  |  |  |
| COc1cnc(O[C@@H]2C[C@H]3C(=O)N[C@]4(C(=O)NS(=O)(=O)C5(CF)CC5)C[C@H]4/C=C\CC[C@H](C)C[C@@H](C)[C@H](NC(=O)OC(C)(C)C(F)(F)F)C(=O)N3C2)c2ccc(N(C)C)cc12 [Compound 3143, 1,1,1-trifluoro-2-methylpropan-2-yl((2R,6S,7R,9S,13aS,14aR,16aS,Z)-2-((6-(dimethylamino)-4-methoxyisoquinolin-1-yl)oxy)-14a-(((1-(fluoromethyl)cyclopropyl)sulfonyl)carbamoyl)-7,9-dimethyl-5,16-dioxo-1,2,3,5,6,7,8,9,10,11,13a,14,14a,15,16,16a-hexadecahydrocyclopropa[e]pyrrolo[1,2-a][1,4]diazacyclopentadecin-6-yl)carbamate] |  |  | < 5.46 nM | < 5.46 nM |  |
| COc1cnc2ccc(O[C@@H]3C[C@H]4C(=O)N[C@]5(C(=O)NS(=O)(=O)C6(C)CC6)C[C@H]5/C=C\CC[C@@H](C)C[C@@H](C)[C@H](NC(=O)OC(C)(C)C)C(=O)N4C3)cc2n1 [Compound 4310, tert-butyl ((2R,6S,7R,9R,13aS,14aR,16aS,Z)-2-((3-methoxyquinoxalin-6-yl)oxy)-7,9-dimethyl-14a-(((1-methylcyclopropyl)sulfonyl)carbamoyl)-5,16-dioxo-1,2,3,5,6,7,8,9,10,11,13a,14,14a,15,16,16a-hexadecahydrocyclopropa[e]pyrrolo[1,2-a][1,4]diazacyclopentadecin-6-yl)carbamate] | 1.01 to 5 nM | 0.51 to 1 nM |  |  |  |
| C[C@@H]1CC/C=C\[C@@H]2C[C@@]2(C(=O)NS(=O)(=O)C2(C)CC2)NC(=O)[C@@H]2C[C@@H](Oc3nc4c(c5ccccc35)OCCC4)CN2C(=O)[C@@H](NC(=O)OC(C)(C)C)[C@H](C)C1 [Compound 6020, tert-butyl ((2R,6S,7R,9R,13aS,14aR,16aS,Z)-2-((3,4-dihydro-2H-pyrano[3,2-c]isoquinolin-6-yl)oxy)-7,9-dimethyl-14a-(((1-methylcyclopropyl)sulfonyl)carbamoyl)-5,16-dioxo-1,2,3,5,6,7,8,9,10,11,13a,14,14a,15,16,16a-hexadecahydrocyclopropa[e]pyrrolo[1,2-a][1,4]diazacyclopentadecin-6-yl)carbamate] | < 5.46 nM | < 5.46 nM |  |  |  |
| COc1ccc2c(O[C@@H]3C[C@H]4C(=O)N[C@]5(C(=O)NS(=O)(=O)C6CC6)C[C@H]5/C=C\CC[C@H](C)C[C@@H](C)[C@H](NC(=O)OC5C[C@@H]6C[C@@H]6C5)C(=O)N4C3)nc(-c3ccc(OC(C)C)cn3)cc2c1 (stereo partly drawn) [Compound 5208, (1R,3r,5S)-bicyclo[3.1.0]hexan-3-yl((2R,6S,7R,9S,13aS,14aR,16aS,Z)-14a-((cyclopropylsulfonyl)carbamoyl)-2-((3-(5-isopropoxypyridin-2-yl)-6-methoxyisoquinolin-1-yl)oxy)-7,9-dimethyl-5,16-dioxo-1,2,3,5,6,7,8,9,10,11,13a,14,14a,15,16,16a-hexadecahydrocyclopropa[e]pyrrolo[1,2-a][1,4]diazacyclopentadecin-6-yl)carbamate] | < 5.46 nM | < 5.46 nM |  |  |  |
| CC[C@@H]1C[C@H](C)CC/C=C\[C@@H]2C[C@@]2(C(=O)NS(=O)(=O)C2(C)CC2)NC(=O)[C@@H]2C[C@@H](Oc3nc(-c4ccc(OC(C)C)cn4)cc4cc(OC)ccc34)CN2C(=O)[C@H]1NC(=O)OC(C)(C)C(C)(F)F [Compound 5487, 3,3-difluoro-2-methylbutan-2-yl((2R,6S,7R,9R,13aS,14aR,16aS,Z)-7-ethyl-2-((3-(5-isopropoxypyridin-2-yl)-6-methoxyisoquinolin-1-yl)oxy)-9-methyl-14a-(((1-methylcyclopropyl)sulfonyl)carbamoyl)-5,16-dioxo-1,2,3,5,6,7,8,9,10,11,13a,14,14a,15,16,16a-hexadecahydrocyclopropa[e]pyrrolo[1,2-a][1,4]diazacyclopentadecin-6-yl)carbamate] | 1.01 to 5 nM | 1.01 to 5 nM |  |  |  |
| COc1ccc2c(O[C@@H]3C[C@H]4C(=O)N[C@]5(C(=O)NS(=O)(=O)C6(CF)CC6)C[C@H]5/C=C\CC[C@@H](C)C[C@@H](C)[C@H](NC(=O)OC(C)(C)C(F)(F)F)C(=O)N4C3)nc(N(C)C)cc2c1 [Compound 3127, 1,1,1-trifluoro-2-methylpropan-2-yl((2R,6S,7R,9R,13aS,14aR,16aS,Z)-2-((3-(dimethylamino)-6-methoxyisoquinolin-1-yl)oxy)-14a-(((1-(fluoromethyl)cyclopropyl)sulfonyl)carbamoyl)-7,9-dimethyl-5,16-dioxo-1,2,3,5,6,7,8,9,10,11,13a,14,14a,15,16,16a-hexadecahydrocyclopropa[e]pyrrolo[1,2-a][1,4]diazacyclopentadecin-6-yl)carbamate] |  |  | < 5.46 nM | 4.82 to 103 nM |  |
| CCCOc1cc2c(Cl)cccc2c(O[C@@H]2C[C@H]3C(=O)N[C@]4(C(=O)NS(=O)(=O)C5(C)CC5)C[C@H]4/C=C\CC[C@@H](C)C[C@@H](C)[C@H](NC(=O)OC(C)(C)C)C(=O)N3C2)n1 [Compound 1072, tert-butyl ((2R,6S,7R,9R,13aS,14aR,16aS,Z)-2-((5-chloro-3-propoxyisoquinolin-1-yl)oxy)-7,9-dimethyl-14a-(((1-methylcyclopropyl)sulfonyl)carbamoyl)-5,16-dioxo-1,2,3,5,6,7,8,9,10,11,13a,14,14a,15,16,16a-hexadecahydrocyclopropa[e]pyrrolo[1,2-a][1,4]diazacyclopentadecin-6-yl)carbamate] |  |  | < 5.46 nM | < 5.46 nM |  |
| COc1ccc2c(O[C@@H]3C[C@H]4C(=O)N[C@]5(C(=O)NS(=O)(=O)C6(CF)CC6)C[C@H]5/C=C\CC[C@@H](C)C[C@@H](C)[C@H](NC(=O)OC(C)(C)C(F)(F)F)C(=O)N4C3)nc(Cl)cc2c1 [Compound 1165, 1,1,1-trifluoro-2-methylpropan-2-yl((2R,6S,7R,9R,13aS,14aR,16aS,Z)-2-((3-chloro-6-methoxyisoquinolin-1-yl)oxy)-14a-(((1-(fluoromethyl)cyclopropyl)sulfonyl)carbamoyl)-7,9-dimethyl-5,16-dioxo-1,2,3,5,6,7,8,9,10,11,13a,14,14a,15,16,16a-hexadecahydrocyclopropa[e]pyrrolo[1,2-a][1,4]diazacyclopentadecin-6-yl)carbamate] |  |  | < 5.46 nM | < 5.46 nM |  |
